Reference: patent US11073508B2, “Rapid conductance based ion channel analysis” (Arizona Board of Regents on Behalf of the University of …, priority 2017, dated 2021)

Legend:
Assay type in all cases: biochemical
[1] = test system: Gramicidin A (gA) channels in DPhPC BLM; test: High speed solution exchange with gA-functionalized BLM, sub-ms conductance protocol (Example 2); details: recording buffer switched to recording buffer + 1 M Ca^2+, 0.9 ms protocol, 10 kHz filter
Text: Electrophysiological data was acquired with a HEKA EPC-10 Single patch clamp amplifier and digitized with Patchmaster software (v. 2.73). Single channel recordings were obtained at a −100 mV holding voltage, digitized at 20 kHz and filtered at 1 kHz, unless otherwise stated. Sub-millisecond conductance measurements were collected at 200 kHz and filtered at 10 kHz. Noise values were obtained from the Noise Panel present in Patchmaster software which measures instrument noise through the amplifier's 4-pole, low-pass Bessel filter.
Membrane conductance values were evaluated against a 21-point reference protocol that applied a 50 ms voltage pulses ranging from −100 to +100 mV, in 10 mV intervals. Each pulse was preceded by a 10 ms rest at a holding voltage of 0 mV and followed by a 1000 ms rest (0 mV) to ensure the bilayer capacitance was fully discharged before proceeding to the next voltage step. […]
Fast solution switching experiments were performed with a High Speed Solution Exchange-2/3 system (ALA Scientific, New York), A BLM pipette was positioned about 1 mm away and equidistant from the outflow of two tubes approximately perpendicular from one another. […] The solution composition perfusing across the BLM pipette was rapidly switched using a solenoid pinch valve and the membrane conductance was measured using the patch clamp amplifier. Membrane conductance was assessed as described above. […]

[2] = test system: Gramicidin A (gA) channels in DPhPC BLM; test: Fast solution exchange with gA-functionalized BLMs, conductance protocol F (Example 1); details: gA-functionalized BLM on 3 μm aperture pipette; Ca^2+ switched from 0 to 1 M
Protocol: (§1) All electrophysiological measurements were performed using a HEKA Electronik EPC-10 Double patch clamp amplifier (Germany) using PatchMaster software (v2.73). Data were digitized at 20 kHz and filtered at 1 kHz, unless otherwise specified. BLM conductance was measured using several multi-step voltage protocols. All protocols were evaluated against a 21-point reference protocol that applied 50 ms potential pulses ranging from −100 to +100 mV, in 10 mV intervals. Each pulse was preceded by a 10 ms rest at a holding potential of 0 mV and followed by a 1000 ms rest to ensure the bilayer capacitance was fully discharged before proceeding to the next potential step. The slope of the i-V curve is the BLM conductance, GBLM (pA/mV), and the resistance, RBLM, is (GBLM)^−1.
A 1 mg/mL stock solution of gA in EtOH was prepared and stored at 4° C. for up to two weeks. […]
A dual-port perfusion apparatus was fabricated from a two-barrel theta capillary. […] The 10-90% response time of the solution exchange was determined by laterally translating the theta capillary tip to alternately deliver recording buffer and Ca^2+ solution to the pipette tip, which was positioned ˜200 μm from the outlet of the theta capillary tip, while monitoring the change in current through the pipette aperture at a holding potential of −20 mV. […]

[3] = Single channel recording of gA in DPhPC BLM
Protocol: as §1
A 1 mg/mL stock solution of gA in EtOH was prepared and stored at 4° C. for up to two weeks. For use, the solution was diluted to 1 μg/mL in EtOH and 0.5-1 μL aliquots were injected into the bath solution at a position ca. 5 mm from the pipette tip while monitoring current at a holding potential of −100 mV. […]
Gramicidin A dimerizes in lipid bilayers to form non-selective, cation-permeable ICs and is widely used as a model IC for illustrating BLM formation. […] The conductance of the BLM was measured using protocols A and E with recording buffer on both sides of the membrane. […]

Molecule | decrease in membrane conductance upon application of 1 M Ca^2+ [1] [%] | decrease in normalized BLM conductance using the mean of a 1 s window before and after solution exchange [2] [%] | increase in membrane conductance by an individual gA ion channel ([3]; 1 M KCl solutions) [fA/mV] | current contributed by each gA channel ([3]; holding potential −100 mV, recording buffer 1 M KCl on both sides, DPhPC BLM, 3 μm aperture) [pA]
[Ca+2].[Cl-].[Cl-] [Ca^2+, CaCl2] | ~60 | 81.9±13.5 | – | –
Gramicidin A [gA] | – | – | ~20 | ~2
